In patent US20220146526A1, “METHOD FOR EVALUATING SAMPLE, ANALYSIS METHOD, METHOD FOR DETECTING DEGRADED SAMPLE, MARKER FOR DETECTING DEGRADED BLOOD PLASMA SAMPLE, AND MARKER FOR DETECTING DEGRADED SERUM SAMPLE” (SHIMADZU CORPORATION, priority 2019, published 2022):
Where “and” joins values, the source holds several entries; their conditions need not be identical. Equal values may be shown once. Where a name gives a salt, the structure may show the parent alone.

How the values were obtained:
Format in all cases: physicochemical, human
[1] = GC/MS of blood plasma sample: time from blood collection to centrifugation (Table A); conditions: for Rate of increase or decrease: detection intensity relative to 1 at 15 minutes; for Rate of increase or decrease / Increase or decrease: blood collection to centrifugation; for Increase or decrease: detection intensity
Description: (§1) At room temperature, 5 mL of blood from a healthy subject was taken into a blood-collecting vessel containing EDTA, and the blood-collecting vessel was inverted for mixing, then cooled, and allowed to stand at 4° C. Here, in order to investigate how the detection intensity of molecules contained in the sample was affected in a case where the time to cooling was set to 5 minutes or more as compared to that in a case where the time to cooling was set to 1 minute or less, preparations were performed under both the former condition and the latter condition. After standing, the blood sample was subjected to centrifugation under a condition of 4° C., 3000 rpm, and 15 minutes. […] After centrifugation, the blood-collecting vessel was left to stand at room temperature for 30 minutes, and the blood plasma was isolated during this 30 minutes. The obtained blood plasma sample was frozen and stored. Here, in order to investigate how the detection intensity of molecules contained in the sample was affected in cases where freezing and thawing was performed 4 times, 6 times, and 10 times after freezing as compared to that in a case where freezing and thawing was performed 2 times after freezing, freezing and thawing was performed under the respective conditions of 2, 4, 6, and 10 times.
(§2) Frozen blood plasma samples and serum samples were subjected to GC/MS or LC/MS. In GC/MS, the blood plasma samples and serum samples were subjected to methoxymation and trimethylsilylation and then introduced to GC-MS.
(§3) GC/MS was conducted using GCMS·TQ8040 (Shimadzu Corporation) that was a GC·MS equipped with AOC·20i (Shimadzu Corporation) as an autosampler.
(§4) Column: BPX5 (inner diameter of 0.25 mm, length of 30 m, and film thickness of 0.25 μm) (SGE)
(§5) Column temperature: maintained at 60° C. for 2 minutes, then raised at 15° C./min, and maintained at 330° C. for 3 minutes.
(§6) Inlet temperature: 250° C.
(§7) Carrier gas control mode: constant linear velocity of 39.0 cm/sec
(§8) Sample introduction method: split (split ratio of 30:1) Injection volume: 1 μL
(§9) Ionization method: electron ionization
(§10) Ionization current: 60 μA
(§11) Interface temperature: 280° C.
(§12) Ion source temperature: 200° C.
(§13) Mode: multiple reaction monitoring (MRM)
The rate of increase or decrease in Table A is the value of detection intensity relative to 1 that is the detection intensity in a case where the time from blood collection to centrifugation is set to 15 minutes.

[2] = GC/MS of blood plasma sample: number of times of freezing and thawing (Table C); conditions: for Rate of increase or decrease: detection intensity relative to 1 at 2 times; for Increase or decrease: detection intensity
Description: as §1, §2, §3, §4, §5, §6, §7, §8, §9, §10, §11, §12, §13
The rate of increase or decrease in Table C is the value of detection intensity relative to 1 that is the detection intensity in a case where the number of times of freezing and thawing is set to 2 times.

[3] = GC/MS of serum sample: time from blood collection to centrifugation (Table G); conditions: blood collection to centrifugation; for Rate of increase or decrease: detection intensity relative to 1 at 15 minutes; for Increase or decrease: detection intensity
Method in brief: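 Blood was held for varying times before centrifugation (room temperature, 3500 rpm, 5 min); serum was frozen, then methoxymated and trimethylsilylated for GC/MS with electron ionization in MRM mode. Values are detection intensities relative to the 15-minute collection-to-centrifugation condition, set as 1.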

[4] = GC/MS of serum sample: time from centrifugation to isolation (Table H); set-up: key to Rate of increase or decrease / Rate of increase or decrease (first value, increase): detection intensity relative to 1 at 30 min centrifugation-to-isolation; conditions: for Rate of increase or decrease: detection intensity relative to 1 at 30 minutes; for Increase or decrease: detection intensity
Method in brief: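 Blood was centrifuged at room temperature, 3500 rpm, 5 min, and the vessel left at room temperature for 30 min, 1 h or 6 h before serum isolation. Serum was methoxymated, trimethylsilylated and analysed by GC/MS with electron ionization in MRM mode; intensities expressed relative to the 30-min condition (=1).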

[5] = GC/MS of serum sample: number of times of freezing and thawing (Table I); set-up: key to Rate of increase or decrease / Rate of increase or decrease (first value, increase): detection intensity relative to 2 freeze-thaw cycles = 1
Method in brief: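 Serum was isolated after centrifugation at room temperature (3500 rpm, 5 min), frozen, and put through 2, 4, 6 or 10 freeze–thaw cycles. Samples were methoxymated and trimethylsilylated, then run by electron-ionization GC/MS in MRM mode on a BPX5 column (60 to 330 °C). Detection intensity is given relative to the 2-cycle sample, set as 1.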

[6] = freezing and thawing 4 times vs 2 times
[7] = freezing and thawing 6 times vs 2 times

| SMILES | Rate of increase or decrease ([1]; after 4 hours) | Increase or decrease ([1]; after 4 hours vs 15 minutes) | Rate of increase or decrease ([4]; after 1 hour) | Increase or decrease ([4]; after 1 hour vs 30 minutes) | Rate of increase or decrease ([2]; freezing and thawing 4 times) | Increase or decrease [2, 6] | Rate of increase or decrease ([3]; after 4 hours) | Increase or decrease ([3]; after 4 hours vs 15 minutes) | Rate of increase or decrease ([2]; freezing and thawing 6 times) | Increase or decrease [2, 7] | Rate of increase or decrease ([3]; after 8 hours) | Increase or decrease ([3]; after 8 hours vs 15 minutes) | Rate of increase or decrease ([1]; after 12 hours) | Increase or decrease ([1]; after 12 hours vs 15 minutes) | further results |
| --- | --- | --- | --- | --- | --- | --- | --- | --- | --- | --- | --- | --- | --- | --- | --- |
| O=C[C@H](O)[C@@H](O)[C@H](O)CO [Xylose] | – | Different from individual | – | – | – | – | 1.47 | Increase | 0.68 | Decrease | 0.68 | Decrease | – | – | Rate of increase or decrease (second value, decrease) ([1]; different from individual to individual, individuals with decrease, relative to 1 at 15 minutes, collection to centrifugation, after 4 hours): 0.69; Rate of increase or decrease (first value, increase) ([1]; different from individual to individual, individuals with increase, relative to 1 at 15 minutes, collection to centrifugation, after 4 hours): 1.68 |
| O=C[C@H](O)[C@@H](O)[C@@H](O)[C@H](O)C(=O)O [Galacturonic acid] | – | – | 1.87 | Increase | 1.44 | Increase | – | – | – | – | 0.60 and 0.64 | Decrease | – | – | – |
| O=S(=O)(O)Oc1c[nH]c2ccccc12 [Indoxyl sulfate] | – | – | – | – | – | – | – | – | 0.68 | Decrease | – | – | 1.50 | Increase | – |

Now from value to compound, other results behind:

| Rate of increase or decrease ([1]; after 4 hours) | Increase or decrease ([1]; after 4 hours vs 15 minutes) | Rate of increase or decrease ([4]; after 1 hour) | Increase or decrease ([4]; after 1 hour vs 30 minutes) | Rate of increase or decrease ([2]; freezing and thawing 4 times) | Increase or decrease [2, 6] | Rate of increase or decrease ([3]; after 4 hours) | Increase or decrease ([3]; after 4 hours vs 15 minutes) | Rate of increase or decrease ([2]; freezing and thawing 6 times) | Increase or decrease [2, 7] | Rate of increase or decrease ([3]; after 8 hours) | Increase or decrease ([3]; after 8 hours vs 15 minutes) | Rate of increase or decrease ([1]; after 12 hours) | Increase or decrease ([1]; after 12 hours vs 15 minutes) | SMILES | further results |
| --- | --- | --- | --- | --- | --- | --- | --- | --- | --- | --- | --- | --- | --- | --- | --- |
| 0.60 | Decrease | 1.36 | Increase | – | – | – | – | – | – | – | – | – | – | CCCCCCCCCCCCCCCCO [1-Hexadecanol (cetanol), 1-Hexadecanol] | Rate of increase or decrease ([2]; freezing and thawing 10 times): 1.88; Increase or decrease ([2]; freezing and thawing 10 times vs 2 times): Increase; Rate of increase or decrease ([3]; after 12 hours): 1.38; Increase or decrease ([3]; after 12 hours vs 15 minutes): Increase; Increase or decrease ([5]; detection intensity, serum, GC/MS, freezing and thawing 10 times vs 2 times): Different from individual; Rate of increase or decrease (second value, decrease) ([5]; different from individual to individual, individuals with decrease, relative to 1 at 2 times, serum, GC/MS, freezing and thawing 10 times): 0.70; Rate of increase or decrease (first value, increase) ([5]; different from individual to individual, individuals with increase, relative to 1 at 2 times, serum, GC/MS, freezing and thawing 10 times): 1.34 |
| 1.77 | Increase | – | – | 1.41 | Increase | 0.62 | Decrease | – | – | – | – | – | – | O=C1O[C@H]([C@@H](O)CO)C(O)=C1O [Ascorbic acid] | – |
| – | – | – | – | – | – | 1.98 | Increase | 0.67 | Decrease | – | – | 1.35 | Increase | CCCCCCCCCCCCCCCCCC(=O)OCC(O)CO (centres unmarked) [Monostearin] | Rate of increase or decrease ([4]; after 6 hours): 2.08; Increase or decrease ([4]; after 6 hours vs 30 minutes): Increase; Rate of increase or decrease ([5]; 10 times of freezing and thawing, detection intensity relative to 1 at 2 times): 0.60; Number of times when compound is affected ([5]; serum sample, GC/MS, detection intensity changed by 30% or more vs 2 times of freezing and thawing): 10 times; Increase or decrease ([5]; serum sample, GC/MS, detection intensity vs 2 times of freezing and thawing): Decrease |
